Measured values as given in patent US20090192147A1, “[a]-FUSED INDOLE COMPOUNDS, THEIR USE AS mTOR KINASE AND PI3 KINASE INHIBITORS, AND THEIR [sequence]” (Wyeth, priority 2008, published 2009).
Like-named read-outs stand apart in the source and are kept apart here.

Legend:
human TOR (FLAG-TOR) = molecular target: T1, human TOR (FLAG-TOR) (Homo sapiens, UniProt P42345); assay: mTOR kinase assay, purified enzyme, DELFIA format; format: biochemical; conditions: 100 μM ATP, His6-S6K substrate
T1 construct: FLAG

PI3K-alpha = PI3K-alpha (Homo sapiens, UniProt P42336); assay: Fluorescence polarization assay for PI3K; format: biochemical; conditions: 25 μM ATP, diC8-PI(4,5)P2 substrate; read-out: PI3 Kinase α IC50
Method: (§1) Fluorescence Polarization Assay for PI3K
(§2) Reaction Buffer: 20 mM HEPES, pH 7.5, 2 mM MgCl2, 0.05% CHAPS; and 0.01% BME (added fresh) Stop/Detection Buffer: 100 mM HEPES, pH 7.5, 4 mM EDTA, 0.05% CHAPS; ATP 20 mM in water; PIP2 (diC8, Echelon, Salt Lake City Utah, cat# P-4508) 1 mM in water (MW=856.5); GST-GRP 1.75 mg/mL or 1.4 mg/mL in 10% glycerol; Red detector (TAMRA) 2.5 μM; Plate: Nunc 384 well black polypropylene fluorescence plate.
(§3) PI3-Kinase reactions were performed in […], pH 7, […], and 25 μM ATP, with diC8-PI(4,5)P2 (Echelon, Salt Lake City Utah) as substrate. Nunc 384 well black polypropylene fluorescent plates were used for PI3K assays. Reactions were quenched by the addition of EDTA to a final concentration of […]. Final reaction volumes were 10 μl. For evaluation of PI3K inhibitors, 5 ng of enzyme (PI3K-alpha, beta, gamma, or delta) and 2.5 μM of substrate was used per […] reaction volume, and inhibitor concentrations ranged from 100 pM to 20 μM; the final level of DMSO in reactions never exceeded 2%. Reactions were allowed to proceed for one hour at 25° C. After 1 hour, GST-tagged GRP1 (general receptor for phosphoinositides) PH domain fusion protein was added to a final concentration of 100 nM, and BODIPY-TMRI(1,3,4,5)P4 (Echelon) was also added to a final concentration of 5 nM. Final sample volumes were 25 μl with a final DMSO concentration of 0.8%. Assay Plates were read on PerkinElmer Envision plate readers with appropriate filters for Tamra [BODIPY-TMRI(1,3,4,5)P4]. Data obtained were used to calculate enzymatic activity and enzyme inhibition by inhibitor compounds.

PI3K-gamma = PI3K-gamma (Homo sapiens, UniProt P48736); assay: Fluorescence polarization assay for PI3K; format: biochemical; conditions: 25 μM ATP, diC8-PI(4,5)P2 substrate; read-out: PI3 Kinase γ IC50
Method: as §1, §2, §3

PC3-MM2 cells = assay: In vitro cell culture growth assay (MTS); format: cell-based; conditions: Homo sapiens, PC3MM2, 72 h, growth inhibition, three days after drug treatment
Method: (§4) Cell lines used were human adenocarcinoma (LoVo), pancreatic […], prostate (LNCap), breast (MDA468, MCF7), colon (HCT116), renal (HTB44 A498), and ovarian (OVCAR3) tumor cell lines. The tumor cells were plated in 96-well culture plates at approximately 3000 cells per well. One day following plating, various concentrations of PI3K inhibitors in DMSO were added to cells (final DMSO concentration in cell assays was 0.25%). Three days after drug treatment, viable cell densities were determined by cell mediated metabolic conversion of the dye MTS, a well-established indicator of cell proliferation in vitro. Cell growth assays were performed using kits purchased from Promega Corporation (Madison, Wis.), following the protocol provided by the vendor. Measuring absorbance at 490 nm generated the MTS assay results. Compound effect on cell proliferation was assessed relative to untreated control cell growth.

[1] = test system: human tumor xenograft models; conditions: cited from earlier work
[2] = test system: OVCAR3 ovarian tumor cell line; assay: In vitro cell culture growth assay (MTS); format: cell-based; conditions: Homo sapiens, OVCAR-3, 72 h, growth inhibition, three days after drug treatment
Method: as §4

[3] = test system: acute lymphoblastic leukemia; conditions: NOS/SCID mouse; cited from earlier work
mTOR enzymes = mTOR enzymes (Homo sapiens, UniProt P42345); conditions: read-out: mTOR enzymes IC50; literature value; cited from earlier work

Chain of PI3K-gamma (P48736 whole entry): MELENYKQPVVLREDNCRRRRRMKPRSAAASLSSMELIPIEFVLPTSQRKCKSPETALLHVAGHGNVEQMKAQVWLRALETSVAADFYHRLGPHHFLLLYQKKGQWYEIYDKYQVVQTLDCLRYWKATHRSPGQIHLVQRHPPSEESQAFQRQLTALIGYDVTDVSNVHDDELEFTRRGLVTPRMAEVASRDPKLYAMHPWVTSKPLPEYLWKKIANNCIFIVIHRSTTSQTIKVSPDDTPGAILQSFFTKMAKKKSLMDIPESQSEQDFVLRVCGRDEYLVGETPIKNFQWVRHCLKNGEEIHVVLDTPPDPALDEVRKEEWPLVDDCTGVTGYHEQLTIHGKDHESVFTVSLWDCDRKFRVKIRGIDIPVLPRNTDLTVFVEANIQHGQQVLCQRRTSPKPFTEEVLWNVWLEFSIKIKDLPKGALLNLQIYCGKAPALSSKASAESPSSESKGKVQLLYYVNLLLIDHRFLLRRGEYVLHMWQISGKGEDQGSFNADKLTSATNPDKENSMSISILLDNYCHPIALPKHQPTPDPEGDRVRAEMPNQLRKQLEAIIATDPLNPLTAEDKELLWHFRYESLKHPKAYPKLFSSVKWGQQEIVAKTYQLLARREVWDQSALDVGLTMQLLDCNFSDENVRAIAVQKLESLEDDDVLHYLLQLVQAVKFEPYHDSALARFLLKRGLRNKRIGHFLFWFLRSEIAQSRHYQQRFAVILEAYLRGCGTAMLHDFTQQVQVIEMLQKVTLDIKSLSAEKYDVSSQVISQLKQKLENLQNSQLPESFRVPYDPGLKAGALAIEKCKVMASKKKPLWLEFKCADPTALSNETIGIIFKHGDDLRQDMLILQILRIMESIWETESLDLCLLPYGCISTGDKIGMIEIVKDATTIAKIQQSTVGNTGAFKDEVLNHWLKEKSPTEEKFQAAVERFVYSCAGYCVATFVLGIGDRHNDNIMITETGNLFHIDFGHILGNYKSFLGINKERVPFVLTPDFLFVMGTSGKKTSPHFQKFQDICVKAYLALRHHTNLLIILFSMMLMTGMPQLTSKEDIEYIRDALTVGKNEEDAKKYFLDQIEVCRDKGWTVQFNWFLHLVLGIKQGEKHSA
Chain of PI3K-alpha (P42336 whole entry, species assumed): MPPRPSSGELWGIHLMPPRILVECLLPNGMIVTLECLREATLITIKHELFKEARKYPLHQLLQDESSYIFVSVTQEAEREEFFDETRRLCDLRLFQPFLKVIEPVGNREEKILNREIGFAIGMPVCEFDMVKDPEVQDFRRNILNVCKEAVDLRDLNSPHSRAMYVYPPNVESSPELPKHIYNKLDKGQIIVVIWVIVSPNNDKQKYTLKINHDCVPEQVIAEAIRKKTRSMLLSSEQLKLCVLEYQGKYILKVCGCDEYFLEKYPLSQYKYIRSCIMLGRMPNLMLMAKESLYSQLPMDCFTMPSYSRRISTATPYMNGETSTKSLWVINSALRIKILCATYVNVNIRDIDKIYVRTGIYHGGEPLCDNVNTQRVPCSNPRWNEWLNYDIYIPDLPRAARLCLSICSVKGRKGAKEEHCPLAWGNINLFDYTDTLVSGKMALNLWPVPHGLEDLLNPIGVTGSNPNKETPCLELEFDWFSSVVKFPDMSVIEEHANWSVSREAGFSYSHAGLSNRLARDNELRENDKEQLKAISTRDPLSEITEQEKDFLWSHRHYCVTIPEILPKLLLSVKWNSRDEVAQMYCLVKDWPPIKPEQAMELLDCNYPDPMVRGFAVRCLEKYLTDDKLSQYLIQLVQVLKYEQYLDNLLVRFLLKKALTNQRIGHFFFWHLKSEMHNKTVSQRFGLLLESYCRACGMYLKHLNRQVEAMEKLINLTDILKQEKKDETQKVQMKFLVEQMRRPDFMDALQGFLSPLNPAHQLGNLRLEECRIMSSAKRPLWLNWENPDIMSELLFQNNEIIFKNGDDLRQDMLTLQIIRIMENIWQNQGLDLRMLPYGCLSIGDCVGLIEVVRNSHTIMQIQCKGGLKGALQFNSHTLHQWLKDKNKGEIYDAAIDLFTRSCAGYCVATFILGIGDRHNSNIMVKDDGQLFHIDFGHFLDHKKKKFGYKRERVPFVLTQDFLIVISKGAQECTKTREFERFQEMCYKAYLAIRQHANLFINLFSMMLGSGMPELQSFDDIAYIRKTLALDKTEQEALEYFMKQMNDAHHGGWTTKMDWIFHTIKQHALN
Chain of PI3K-alpha (P27986 whole entry partner, species assumed): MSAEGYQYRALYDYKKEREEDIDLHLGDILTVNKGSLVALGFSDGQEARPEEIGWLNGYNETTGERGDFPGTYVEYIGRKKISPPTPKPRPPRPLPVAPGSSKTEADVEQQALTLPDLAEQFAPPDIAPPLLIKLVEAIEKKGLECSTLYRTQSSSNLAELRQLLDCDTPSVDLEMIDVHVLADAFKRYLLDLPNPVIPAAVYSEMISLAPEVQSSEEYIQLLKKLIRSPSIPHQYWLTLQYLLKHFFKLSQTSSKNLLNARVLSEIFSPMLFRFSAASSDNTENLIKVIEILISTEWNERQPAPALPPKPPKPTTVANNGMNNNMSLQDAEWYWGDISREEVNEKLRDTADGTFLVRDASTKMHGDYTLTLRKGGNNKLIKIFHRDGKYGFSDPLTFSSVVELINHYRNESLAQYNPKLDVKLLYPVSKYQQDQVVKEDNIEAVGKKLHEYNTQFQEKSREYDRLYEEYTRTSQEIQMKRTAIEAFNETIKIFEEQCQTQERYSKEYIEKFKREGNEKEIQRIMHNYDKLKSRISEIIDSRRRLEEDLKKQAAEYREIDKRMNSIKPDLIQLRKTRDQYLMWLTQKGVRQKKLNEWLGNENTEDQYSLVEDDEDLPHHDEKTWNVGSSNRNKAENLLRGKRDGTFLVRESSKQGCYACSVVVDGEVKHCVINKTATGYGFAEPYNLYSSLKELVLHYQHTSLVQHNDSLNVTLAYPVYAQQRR

SMILES | IC50 (human TOR (FLAG-TOR)) [nM] | IC50 (PI3K-alpha) [nM] | IC50 (PI3K-gamma) [nM] | IC50 (PC3-MM2 cells) [nM] | activity in human tumor xenograft models ([1]; I.P. dosing in mice, U87MG, PC3, MDA-MB-468, MDA-MB-435, HCT 116, SKOV3, IGROV-1) | IC50 [2] [nM] | activity in human tumor xenograft models ([1]; prostrate (PC-3) and glioblastoma (U-87)) | activity in xenograft mouse model of acute lymphoblastic leukemia [3] | tumor growth in mouse human xenograft cancer models ([1]; chronic oral administration, 400 mg/kg, A549, PC-3, WiDr) | IC50 (mTOR enzymes) [nM]
COc1ccc2c(c1)c(/C=C1\Oc3cc(O)cc(O)c3C1=O)c1n2CCOC1=O [Example I, 10-[(Z)-(4,6-dihydroxy-3-oxo-1-benzofuran-2(3H)-ylidene)methyl]-8-methoxy-3,4-dihydro-1H-[1,4]oxazino[4,3-a]indol-1-one] | 24 | 1.1 | 9 | 5630 | – | – | – | – | – | –
Oc1cccc(-c2nc(N3CCOCC3)c3oc4ncccc4c3n2)c1 [Example P1103, 3-(4-(4-morpholinyl)pyrido[3′,2′:4,5]furo[3,2-d]pyrimidin-2-yl)phenol] | – | – | – | – | demonstrated activity | – | – | – | – | –
COc1ccc2c(c1)c(/C=C1\Oc3cc(O)ccc3C1=O)c1n2CCOC1=O [J, 10-[(Z)-(6-hydroxy-3-oxo-1-benzofuran-2(3H)-ylidene)methyl]-8-methoxy-3,4-dihydro-1H-[1,4]oxazino[4,3-a]indol-1-one] | 114 | 21.5 | 76.5 | > 10000 | – | 5280 | – | – | – | –
COc1ccc2c(c1)c(/C=C1\Oc3cc(O)cc(O)c3C1=O)c1n2CCNC1 [K, (2Z)-4,6-dihydroxy-2-[(8-methoxy-1,2,3,4-tetrahydropyrazino[1,2-a]indol-10-yl)methylene]-1-benzofuran-3(2H)-one] | 9 | 5.5 | 116 | 2190 | – | 1620 | – | – | – | –
COc1ccc2c(c1)c(/C=C1\Oc3cc(O)ccc3C1=O)c1n2CCNC1 [L, (2Z)-6-hydroxy-2-[(8-methoxy-1,2,3,4-tetrahydropyrazino[1,2-a]indol-10-yl)methylene]-1-benzofuran-3(2H)-one] | 320 | 16.5 | 116 | 1510 | – | 780 | – | – | – | –
COc1ccc2c(c1)c(/C=C1\Oc3cc(O)cc(O)c3C1=O)c1n2CCOC1 [M, (2Z)-4,6-dihydroxy-2-[(8-methoxy-3,4-dihydro-1H-[1,4]oxazino[4,3-a]indol-10-yl)methylene]-1-benzofuran-3(2H)-one] | < 32 | 4.5 | 57 | 1910 | – | 1000 | – | – | – | –
COc1ccc2c(c1)c(/C=C1\Oc3cc(O)cc(O)c3C1=O)c1n2CCNC1=O [N, 10-[(Z)-(4,6-dihydroxy-3-oxo-1-benzofuran-2(3H)-ylidene)methyl]-8-methoxy-3,4-dihydropyrazino[1,2-a]indol-1(2H)-one] | < 32 | 2.5 | 24.5 | > 10000 | – | 4950 | – | – | – | –
Cn1c(=O)n(-c2ccc(C(C)(C)C#N)cc2)c2c3cc(-c4cnc5ccccc5c4)ccc3ncc21 [NVP-BEZ-235, 2-methyl-2-(4-(3-methyl-2-oxo-8-(quinolin-3-yl)-2,3-dihydro-1H-imidazo[4,5-c]quinolin-1-yl)phenyl)propanenitrile] | – | – | – | – | – | – | demonstrated activity | – | – | –
COc1ccc2c(c1)c(/C=C1\Oc3cc(O)ccc3C1=O)c1n2CCC1 [O, (2Z)-6-hydroxy-2-[(7-methoxy-2,3-dihydro-1H-pyrrolo[1,2-a]indol-9-yl)methylene]-1-benzofuran-3(2H)-one] | 66 | 14 | 76 | 3400 | – | 3720 | – | – | – | –
COc1ccc2c(c1)c(/C=C1\Oc3cc(O)cc(O)c3C1=O)c1n2CCN(C)C1 [P, (2Z)-4,6-dihydroxy-2-[(8-methoxy-2-methyl-1,2,3,4-tetrahydropyrazino[1,2-a]indol-10-yl)methylene]-1-benzofuran-3(2H)-one] | 9 | 6 | 30.5 | 1610 | – | 1670 | – | – | – | –
COc1ccc2c(c1)c(/C=C1\Oc3cc(O)cc(O)c3C1=O)c1n2CCN(C)C1=O [Q, 10-[(Z)-(4,6-dihydroxy-3-oxo-1-benzofuran-2(3H)-ylidene)methyl]-8-methoxy-2-methyl-3,4-dihydropyrazino[1,2-a]indol-1(2H)-one] | 4 | 3 | 27 | 5050 | – | 3600 | – | – | – | –
CO[C@H]1C[C@@H]2CC[C@@H](C)[C@@](O)(O2)C(=O)C(=O)N2CCCC[C@H]2C(=O)O[C@H]([C@H](C)C[C@@H]2CC[C@@H](OC(=O)C(C)(CO)CO)[C@H](OC)C2)CC(=O)[C@H](C)/C=C(\C)[C@@H](O)[C@@H](OC)C(=O)[C@H](C)C[C@H](C)/C=C/C=C/C=C/1C [Torisel] | – | – | – | – | – | – | – | active | – | –
FC(F)c1nc2ccccc2n1-c1nc(N2CCOCC2)nc(N2CCOCC2)n1 [ZSTK474, 2-(2-difluoromethylbenzoimidazol-1-yl)-4,6-dimorpholino-1,3,5-triazine] | – | – | – | – | – | – | – | – | completely inhibited growth | > 10000
